Test results: patent US20030064954A1, “Cationic amphiphilic 1,4-dihydropyridine derivatives useful for delivery of nucleotide containing compounds” (priority 2000, published 2003)

What was measured:
CVI-P cells = experiment: Cytotoxicity of amphiphile/DNA complexes, percentage of survived cells
D 407 cells = experiment: as above; format: cell-based, human; set-up: concentration or dose not given beside the values
[1] = test system: CV-1P (African monkey green kidney fibroblasts cells); experiment: In vitro transfection of plasmid DNA, β-galactosidase activity per well; format: cell-based; details: CVI-P
Protocol: Transfer of plasmid DNA by various compounds was investigated by using CV-1P (African monkey green kidney fibroblasts cells) and D407 (human retinal pigment epithelial) cells.
The cells were cultured in Dulbecco's modified Eagle's medium (DMEM, Gibco), supplemented with 10% fetal bovine serum (FBS), penicillin/streptomycin (100 units/ml and 100 μg/ml respectively) and 2 mM L-glutamine for D 407 cell line. Cell cultures were maintained at 37° C. in a 7% CO2/air incubator. The cells were collected, counted and seeded in growth medium (100 μl) into 96-well culture plate, 20 000 cells per well. One day later the medium was replaced with fresh medium without serum (150 μl)
In the case of confluent CV1-P cells the medium (with of without serum) was changed on fourth day of cell growth before the transfection.
The complexes at different derivative/DNA charge ratios for transfection procedure were prepared just before use in 50 mM MES—50 mM HEPES—75 mM NaCl buffer, pH 7.2 in separate 96 well plates. One hour after changing the serum-free medium with 10% serum the complexes were added to the cells at […]. Dose of DNA per well was 0.6 μg. After 5 h the complexes were removed, the cells were washed with PBS, and the normal growth medium was added. After 45 h of incubation at 37° C. the cells were lysed with 2% Triton X 100, twice deep frozen and the β-galactosidase activity in each well was determined spectrofotometrically with ELx800 automated microplate reader (Bio-Tex Instruments Inc., Winooski, Vt. USA) by monitoring the hydrolysis of o-nitrophenylgalactopyranoside (oNPG) at 405 nm. Purified β-galactosidase from E.coli was used to construct a standard curve and to calculate […] activity in the transfected cells. […] Transfection efficiencies are given as percentage in comparison to transfection efficiency of Lipofectin^R.

plasmid DNA = experiment: DNA condensation/complexation, EtBr displacement assay; format: binding
Protocol: The ability of the cationic amphiphiles to condense DNA was assessed with an EtBr displacement assay. Briefly, in 96 well plates plasmid DNA (0.6 μg per well) was reacted with 0.002% EtBr in 20 mM HEPES—150 mM NaCl buffer, pH 7.4 and fluorescence intensity was measured at 530 nm (excitation) and 590 nm (emission). Intercalation of EtBr molecules between the base pairs of the DNA double helix results in increased fluorescence signal. Immediately thereafter, the cationic liposomes were added to form complexes at different +/−charge ratios and the quenching of fluorescence intensity of EtBr was monitored. Condensation of DNA upon complexation with liposomes results in the displacement of EtBr from DNA and in decreased fluorescence signal. Fluorescence was measured using FL 500 microplate fluorescence reader (Bio-Tek Instruments Inc., Winooski, Vt., USA).
The values are expressed as percentage of the maximum fluorescence signal when EtBr bound to DNA in the absence of an amphiphile. Each data point is from at least triplicate experiment ±S.D.

[2] = test system: D407 (human retinal pigment epithelial) cells; experiment: In vitro transfection of plasmid DNA, β-galactosidase activity per well; format: cell-based; details: D 407
Protocol: The complexes at different derivative/DNA charge ratios for transfection procedure were prepared just before use in 50 mM MES—50 mM HEPES—75 mM NaCl buffer, pH 7.2 in separate 96 well plates. One hour after changing the serum-free medium with 10% serum the complexes were added to the cells at 370C. Dose of DNA per well was 0.6 μg. After 5 h the complexes were removed, the cells were washed with PBS, and the normal growth medium was added. After 45 h of incubation at 37° C. the cells were lysed with 2% Triton X 100, twice deep frozen and the β-galactosidase activity in each well was determined spectrofotometrically with ELx800 automated microplate reader (Bio-Tex Instruments Inc., Winooski, Vt. USA) by monitoring the hydrolysis of o-nitrophenylgalactopyranoside (oNPG) at 405 nm. Purified β-galactosidase from E.coli was used to construct a standard curve and to calculate 9-galactosidase activity in the transfected cells. […] Transfection efficiencies are given as percentage in comparison to transfection efficiency of Lipofectin^R.

[3] = amphiphile/DNA +/− charge ratio 0.5
[4] = amphiphile/DNA +/− charge ratio 1
[5] = amphiphile/DNA +/− charge ratio 2
[6] = amphiphile/DNA +/− charge ratio 4
[7] = amphiphile/DNA +/− charge ratio 8

Row | complexation, percentage of the maximum fluorescence signal when EtBr bound to DNA in the absence of an amphiphile (plasmid DNA; [3]) | complexation, percentage of the maximum fluorescence signal when EtBr bound to DNA in the absence of an amphiphile (plasmid DNA; [4]) | complexation, percentage of the maximum fluorescence signal when EtBr bound to DNA in the absence of an amphiphile (plasmid DNA; [5]) | complexation, percentage of the maximum fluorescence signal when EtBr bound to DNA in the absence of an amphiphile (plasmid DNA; [6]) | complexation, percentage of the maximum fluorescence signal when EtBr bound to DNA in the absence of an amphiphile (plasmid DNA; [7]) | Structure (SMILES) | cytotoxicity as a percentage of survived cells (CVI-P cells; [3]) | cytotoxicity as a percentage of survived cells (CVI-P cells; [4]) | cytotoxicity as a percentage of survived cells (CVI-P cells; [5]) | cytotoxicity as a percentage of survived cells (CVI-P cells; [6]) | cytotoxicity as a percentage of survived cells (CVI-P cells; [7]) | cytotoxicity as a percentage of survived cells (D 407 cells; [3]) | cytotoxicity as a percentage of survived cells (D 407 cells; [4]) | cytotoxicity as a percentage of survived cells (D 407 cells; [5]) | cytotoxicity as a percentage of survived cells (D 407 cells; [6]) | cytotoxicity as a percentage of survived cells (D 407 cells; [7]) | transfection efficiency [1, 3] | transfection efficiency [1, 4] | transfection efficiency [1, 5] | transfection efficiency [1, 6] | transfection efficiency [1, 7] | also measured
1 | 94,16% | 89,06% | 83,1% | 77,14% | 71,37% | CCCCCCCCCCCCCCCCOC(=O)C1=C(C[n+]2ccccc2)NC(C[n+]2ccccc2)=C(C(=O)OCCCCCCCCCCCCCCCC)C1c1ccccc1.[Br-].[Br-] [XXV, 1,1′-[(3,5-Dihexadecyloxycarbonyl-4-phenyl-1,4-dihydropyridine-2,6-diyl)dimethylene]bispyridinium dibromide] | 92,82% | 99,29% | 101,03% | 107,03% | 100,65% | 97,52% | 97,73% | 101,48% | 89,12% | 62,05% | 0,23 β-galactosidase units per well | 0,24 β-galactosidase units per well | 17,5 β-galactosidase units per well | 15,15 β-galactosidase units per well | 9,04 β-galactosidase units per well | transfection efficiency [2, 3]: 0,57 β-galactosidase units per well; transfection efficiency [2, 4]: 0,31 β-galactosidase units per well; transfection efficiency [2, 5]: 066 β-galactosidase units per well; transfection efficiency [2, 6]: 2,05 β-galactosidase units per well; transfection efficiency [2, 7]: 2,47 β-galactosidase units per well
2 | 78,91% | 63,92% | 54,5% | 50,0% | 49,62% | CCCCCCCCCCCCCCOC(=O)C1=C(C[n+]2ccccc2)NC(C[n+]2ccccc2)=C(C(=O)OCCCCCCCCCCCCCC)C1c1ccccc1.[Br-].[Br-] [XXIV, 1,1′-{[1,4-Dihydro-4-phenyl-3,5-bis(tetradecyloxycarbonyl)-pyridine-2,6-diyl]dimethylene}bispyridinium dibromide] | 96,17% | 98,12% | 86,72% | 88,19% | 48,08% | 97,59% | 88,59% | 98,83% | 86,99% | 51,24% | 0,63 β-galactosidase units per well | 2,48 β-galactosidase units per well | 15,46 β-galactosidase units per well | 47,78 β-galactosidase units per well | 9,48 β-galactosidase units per well | transfection efficiency [2, 3]: 0,20 β-galactosidase units per well; transfection efficiency [2, 4]: 0,44 β-galactosidase units per well; transfection efficiency [2, 5]: 0,53 β-galactosidase units per well; transfection efficiency [2, 6]: 15,04 β-galactosidase units per well; transfection efficiency [2, 7]: 3,61 β-galactosidase units per well
3 | 77,8% | 58,8% | 48,1% | 45,1% | 43,5% | CCCCCCCCCCOC(=O)C1=C(C[n+]2ccccc2)NC(C[n+]2ccccc2)=C(C(=O)OCCCCCCCCCC)C1c1ccccc1.[Br-].[Br-] [XXII, 1,1′-{[3,5-Bis(decyloxycarbonyl)-1,4-dihydro-4-phenylpyridine-2,6-diyl]dimethylene}bispyridinium dibromide] | 95,71% | 87,2% | 84,01% | 78,2% | 46,74% | – | – | – | – | – | – | – | – | – | – | transfection, result in words ([1]; entry spans the charge ratios 8-0.5): No signal

Row | Structure (SMILES) | complexation, percentage of the maximum fluorescence signal when EtBr bound to DNA in the absence of an amphiphile (plasmid DNA; [3]) | complexation, percentage of the maximum fluorescence signal when EtBr bound to DNA in the absence of an amphiphile (plasmid DNA; [4]) | complexation, percentage of the maximum fluorescence signal when EtBr bound to DNA in the absence of an amphiphile (plasmid DNA; [5]) | complexation, percentage of the maximum fluorescence signal when EtBr bound to DNA in the absence of an amphiphile (plasmid DNA; [6]) | complexation, percentage of the maximum fluorescence signal when EtBr bound to DNA in the absence of an amphiphile (plasmid DNA; [7]) | cytotoxicity as a percentage of survived cells (CVI-P cells; [3]) | cytotoxicity as a percentage of survived cells (CVI-P cells; [4]) | cytotoxicity as a percentage of survived cells (CVI-P cells; [5]) | cytotoxicity as a percentage of survived cells (CVI-P cells; [6]) | cytotoxicity as a percentage of survived cells (CVI-P cells; [7]) | cytotoxicity as a percentage of survived cells (D 407 cells; [3]) | cytotoxicity as a percentage of survived cells (D 407 cells; [4]) | cytotoxicity as a percentage of survived cells (D 407 cells; [5]) | cytotoxicity as a percentage of survived cells (D 407 cells; [6]) | cytotoxicity as a percentage of survived cells (D 407 cells; [7]) | transfection efficiency [1, 3] | transfection efficiency [1, 4] | transfection efficiency [1, 5] | transfection efficiency [1, 6] | transfection efficiency [1, 7] | also measured
4 | CCCCCCCC/C=C\CCCCCCCC(=O)OCC(C[N+](C)(C)C)OC(=O)CCCCCCC/C=C\CCCCCCCC.[Cl-] (stereo not shown) [DOTAP, N-(1-(2,3-dioleoyloxy)propyl)-N,N,N-trimethylammoniummethyl-sulfate, reference compound] | 86,72% | 76,11% | 69,15% | – | 65,47% | 92,45% | 92,09% | 91,87% | 97,89% | 102,3% | 85,08% | 87,48% | 80,32% | 81,34% | 76,11% | 0,61 β-galactosidase units per well | 0,9 β-galactosidase units per well | 15,58 β-galactosidase units per well | 10,5 β-galactosidase units per well | 3,19 β-galactosidase units per well | transfection efficiency [2, 3]: 0,7 β-galactosidase units per well; transfection efficiency [2, 4]: 4,8 β-galactosidase units per well; transfection efficiency [2, 5]: 25,05 β-galactosidase units per well; transfection efficiency [2, 6]: 19,6 β-galactosidase units per well; transfection efficiency [2, 7]: 4,92 β-galactosidase units per well
